Values quoted from earlier work in US20120141611A1, “METHODS AND COMPOSITIONS USING ERGOTHIONEINE TO TREAT A VARIETY OF HEALTH RELATED FACTORS” (Oxis International Inc., priority 2010, published 2012).
In brackets after ≈: the same amount, converted by molar mass.

Experiments:
human platelets = human platelets in vitro; cited from earlier work
[1] = rats, 8 mg/100 gm body weight for 7 days pre-administration; cited from earlier work
cerebellum = settings: decerebrate rabbit; cited from earlier work
[2] = room temperature; cited from earlier work
[3] = animal experimental model of diabetes; cited from earlier work
[4] = low concentrations; cited from earlier work
[5] = Pig; cited from earlier work
[6] = <1 nmol/gm liver versus dietary-augmented animals 1400 nmol/gm liver; cited from earlier work
glutathione reductase = biological target: T1, glutathione reductase (Mus musculus, UniProt P47791); settings: mouse liver cytosol fractions; cited from earlier work
T1 construct: glutathione peroxidase and glutathione reductase activities in mouse liver cytosol fractions; from tissue; host or cells: mouse liver cytosol fractions (result quoted from the literature)
T1 sequence (P47791 27-500): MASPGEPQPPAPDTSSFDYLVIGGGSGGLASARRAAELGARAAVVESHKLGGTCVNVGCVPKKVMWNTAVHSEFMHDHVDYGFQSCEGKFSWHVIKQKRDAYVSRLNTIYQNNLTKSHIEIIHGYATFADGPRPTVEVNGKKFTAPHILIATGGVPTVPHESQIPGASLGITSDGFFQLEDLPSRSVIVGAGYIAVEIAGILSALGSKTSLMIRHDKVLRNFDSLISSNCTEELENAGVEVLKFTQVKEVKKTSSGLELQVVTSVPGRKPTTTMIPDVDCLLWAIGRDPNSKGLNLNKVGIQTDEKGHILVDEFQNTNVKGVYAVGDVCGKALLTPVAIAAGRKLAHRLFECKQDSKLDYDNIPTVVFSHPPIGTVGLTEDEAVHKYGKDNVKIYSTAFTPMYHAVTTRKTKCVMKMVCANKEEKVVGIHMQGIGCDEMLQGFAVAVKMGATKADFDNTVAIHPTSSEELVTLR

hepatic microsomes = settings: NADPH or ascorbic acid challenge; cited from earlier work
erythrocytes = settings: rats, administered in the diet; cited from earlier work
human red cell cells = settings: 1 mM, intact human red cells in vitro; cited from earlier work

C[N+](C)(C)[C@@H](Cc1c[nH]c(=S)[nH]1)C(=O)[O-] [Ergothioneine, ergothioneine]
CO2 production from pyruvate (human platelets): increases in CO2 production from pyruvate
Production of lactate (human platelets): decreased production of lactate
Hepatic injury after a single injection of ethionine [1]: inhibited
Hepatic lipid peroxide formation [1]: reduced
Action on the electrical activity of the cerebellum (cerebellum): some excitatory action
Solubility limit [2]: 900 mM (≈ 206 mg/mL)
Developmental defects of embryos [3]: reverse the developmental defects to almost that of the control group
Radioprotection in vitro [4]: very potent radioprotector even at low concentrations
Concentration of l-ergothioneine in the blood [5]: 3-27 mg/100 ml blood
Increase in hepatic lipid peroxidation in partially LE-deficient rats [6]: 40%
Glutathione reductase activity (glutathione reductase): markedly increased
NADPH-dependent enzymatic lipid peroxidation (hepatic microsomes): inhibits
Erythrocyte lactate level on starvation (erythrocytes): prevented a 40% starvation-induced diminution
Glycolytic activity (human red cell cells): significant increase in glycolytic activity
